What was measured:
EOL-1 cells = assay: Cell viability/proliferation (cellular ATP, CellTiterGlo) in EOL-1; format: cell-based; details: Homo sapiens, EOL1; EOL-1, text; read-out: EC50 (cytotoxicity, cell viability)
A-204 cells = assay: Cell viability/proliferation (cellular ATP, CellTiterGlo) in A-204; format: cell-based; details: Homo sapiens, A204; A-204 (printed A-402); read-out: EC50 (cytotoxicity, cell viability)
Description: (§1) A-204 cells (1 × 10^3) were seeded per well of 384-well plates. After overnight incubation, compounds were added to the cells at logarithmic dose series using the HP digital dispenser D300 (Tecan), normalizing for added DMSO. 1 day and 8 days after seeding cellular ATP content was measured using CellTiterGlo (Promega). Measurements after 8 days were divided by the measurement after 1 day (i.e., the T0 plate) to derive fold proliferation. Data were analyzed with GraphPad Prism software to obtain EC50 values.

EOL-1 and A-204 cells = assay: Cell viability/proliferation, ranges stated over EOL-1 and A-204; format: cell-based; details: Homo sapiens; EOL-1 and A-204, text; read-out: EC50 (cell viability), range
Description: as §1

[1] = CHI LogD determination (reverse-phase HPLC); format: physicochemical; details: reversed-phase HPLC (ACE Excel 3 SuperC18 column), pH 7.4; read-out: CHI LogD (pH7.4)
Description: (§2) removed from both acceptor and donor compartments and mixed with acetonitrile (80 µL) containing an internal standard. The samples were centrifuged (10 min, 5 °C, 3270 g) to sediment precipitated protein and sealed prior to UPLC-MS/MS analysis using a Xevo TQ-S Micro (Waters Corp, USA). Pe was calculated as shown in the below equation: […]
(§3) CA(t) = peak area of compound present in acceptor well at time t = 18000 s Cequi = [CD(t) x VD + CA(t) x VA] / (VD + VA)
(§4) VA = acceptor well volume
(§5) CD(t) = peak area of compound present in donor well at time t = 18000 s Recovery of compound from donor and acceptor wells was calculated and data was only accepted when recovery exceeded 70%.
Using a fast gradient, reverse-phase HPLC method to determine the chromatographic hydrophobicity index (CHI) was determined as described by Camurri and Zaramella (ref. 3) and Valko et al. (ref. 4). Briefly, by plotting the retention time of a set of reference […]
compounds against known CHI values. The CHI value of test compounds was then calculated according to their retention time.
Test compounds were prepared as 0.25 mM solutions in 50:50 acetonitrile:water and analysed by reversed-phase HPLC-UV (wavelength 254 nm) using a ACE Excel 3 SuperC18, 3 µm, 50 x 2.1 mm column with a gradient of aqueous phase (10 mM ammonium acetate, pH 7.4) and mobile phase (acetonitrile).
Intrinsic clearance (Cli) experiments
Test compound (0.5 µM) was incubated with female CD1 mouse or human (mixed gender) liver microsomes (Xenotech LLCTM; 0.5 mg/mL 50mM potassium phosphate buffer, pH7.4) and the reaction initiated with addition of excess NADPH (8 mg/mL 50 mM potassium phosphate buffer, pH7.4). Immediately, at time zero, then at 3, 6, 9, 15 and 30 minutes an aliquot (50 µL) of the incubation mixture was removed and mixed with acetonitrile (100 µL) to stop the reaction. Internal standard was added to all samples, the samples centrifuged to sediment precipitated protein and the plates then sealed prior to […] analysis using […]
a Xevo TQ-S Micro (Waters corporation, USA).
XLfit (IDBS, UK) was used to calculate the exponential decay and consequently the rate constant (k) from the ratio of peak area of test compound to internal standard at each timepoint. The rate of intrinsic clearance (CLi) of each test compound was then calculated using the following calculation:
CLi(mL/min/g liver) = k x V x Microsomal protein yield
Where V (mL/mg protein) is the incubation volume/mg protein added and microsomal protein yield is taken as 52.5 mg protein/ g liver. Verapamil (0.5 µM) was used as a positive control to confirm acceptable assay performance.

[2] = Parallel Artificial Membrane Permeability Assay (PAMPA); format: in vitro ADME
Description: Test compound (10 µM) was incubated in pre-warmed plasma at 37 ᵒC (that is buffered to pH 7.4 in ratio of 70:30 plasma to buffer). Immediately, at time zero, then at 30, 60, 120, and 180 min, a 50 µL aliquot of the incubation mixture was removed and mixed with 200 µL acetonitrile containing Donepezil as the internal standard (50 ng/ml) to stop the reaction. The samples were centrifuged to sediment the precipitated protein and the plates then sealed prior to UPLC-MS/MS analysis using a Xevo TQ-S Micro (Waters Corporation, USA).
XLfit (IDBS, UK) was used to calculate the exponential decay and consequently the rate constant (k) from the ratio of peak area of test compound to internal standard at each time point. The half-life was calculated for each test compound from the rate by using the […]
Parallel Artificial Membrane Permeability Assay (PAMPA)
PAMPA was performed using a 96-well pre-coated BD Gentest™ PAMPA plate (BD Biosciences, U.K.). Each well was divided into two chambers; donor and acceptor, separated by a lipid-oil-lipid tri-layer constructed in a porous filter. The effective permeability, Pe, of the compound was measured at pH 7.4. Stock solutions (5 mM) of the compound were prepared in DMSO. The compound was then further diluted to 10 µM in phosphate buffered […]
saline at pH 7.4. […] The compound […]
dissolved in phosphate buffered saline was then added to the donor side of the membrane and phosphate buffered saline without compound was added to the acceptor side. The PAMPA plate was left at room temperature for 5 h. After which time, an aliquot (100 µL) was then […]
as §2, §3, §4, §5
Using a fast gradient, reverse-phase HPLC method to determine the chromatographic hydrophobicity index (CHI) was determined as described by Camurri and Zaramella (ref. 3) and Valko et al. (ref. 4). Briefly, by plotting the retention time of a set of reference

## COc1cc(-c2cn(C)c(=O)c3cnccc23)cc(OC)c1CN(C)CC(=O)NCCOCCOCCNc1cccc2c1C(=O)N(C1CCC(=O)NC1=O)C2=O (centres unmarked) [Compound 21, reference compound]
EOL-1 cells
  EC50: 5 nM
A-204 cells
  EC50: 90 nM

## COc1cc(-c2cn(C)c(=O)c3cnccc23)c(OC)cc1CN(C)C [Compound 1b]
EOL-1 and A-204 cells
  EC50: 370 to 3550 nM

## COc1cc(-c2cn(C)c(=O)c3cnccc23)cc(OC)c1CN(C)C [Compound 1a]
EOL-1 and A-204 cells
  EC50: 90 to 340 nM

## COc1cc(-c2cn(C)c(=O)c3cnccc23)cc(OC)c1CN1CCN(CCOCCOc2cc(-c3scnc3C)ccc2CNC(=O)[C@@H]2C[C@@H](O)CN2C(=O)[C@@H](NC(=O)C2(F)CC2)C(C)(C)C)CC1 [Compound 46, (2S,4R)-N-(2-(2-(2-(4-(2,6-Dimethoxy-4-(2-methyl-1-oxo-1,2-dihydro-2,7-naphthyridin-4-yl)benzyl)piperazin-1-yl)ethoxy)ethoxy)-4-(4-methylthiazol-5-yl)benzyl)-1-((S)-2-(1-fluorocyclopropane-1-carboxamido)-3,3-dimethylbutanoyl)-4-hydroxypyrrolidine-2-carboxamide]
[1]
  chromatographic logD: 2
[2]; PAMPA, pH 7.4
  recovery at 5 h, 10 µM: 88%
[2]; PAMPA, pH 7.4, 5 h, read-out: PAMPA pH 7.4 Pe
  Papp at 5 h, 10 µM: 0.002 ×10⁻⁶ cm/s
[2]; pH 7.4, permeability class
  PAMPA pH 7.4 HIGH/MED/LOW: LOW and low cell permeability

Reference: paper PMC6348446 (Journal of Medicinal Chemistry, 2018)
